Where two headings read alike, the source gives them in different places.
Experiments:
Format in all cases: cell-based
[1] = test system: C. krusei (ATCC 6258); assay: in vitro micro-dilution susceptibility assay (method of Rojas); details: Pichia kudriavzevii, read-out: minimum inhibition concentration (MIC)
Experimental: (§1) The in vitro susceptibility of Malassezia species to roflumilast was determined utilizing three Candida species as internal control isolates for all testing. These three isolates were C. albicans American Type Culture Collection (ATCC) 90028, C. krusei (ATCC 6258) and C. parapsilosis (ATCC 22019). In addition to testing roflumilast all susceptibility assays were conducted using ketoconazole and hydrocortisone as positive and negative control compounds, respectively. All assays were placed within a humidified incubator set to 32° C. for a total of seven days. Each assay was evaluated after 12 hours of incubation and, every 24 hours post incubation for a total of seven days. The assays were evaluated for visual growth of each pathogen in the no treatment control as well as determination of minimum inhibition concentration (MIC) values. The concentration that provides a 3-log10 CFU/mL reduction in fungal burden from baseline at day 0 was defined as the minimum fungicidal concentration (MHC) and was determined by quantifying fungal burdens found in the microplate at day seven.
(§2) The method of Rojas (Rojas F D, et al. Antifungal susceptibility of Malassezia furfur, Malassezia sympodialis, and Malassezia globose to azole drugs and amphotericin B evaluated using a broth microdilution method. 2014. Medical Mycology. 52:641-646) was used in which the liquid broth medium was RPMI 1640 with added 1.8% glucose, 1% peptone, 0.5% ox-bile, 0.5% malt extract, 1% glycerol, 0.5% Tween 40 and 0.05% Tween 80. Round bottom 96 well microplates were used. The inoculums were prepared in sterile saline and diluted to a final targeted concentration of 0.5×10^5 to 2.5×10^5 CFU/mL in supplemented RPMI. […] For the internal control isolate C. parapsilosis (ATCC 22019) the expected CLSI values for ketoconazole of 0.03-0.25 (at 24 hours) and 0.06-0.5 (at 48 hours) did agree with the 2-day value (Table A) of 0.5.

[2] = test system: M. restricta (ATCC MYA-4611); assay: as above; details: for MIC: read-out: minimum inhibition concentration (MIC)
Experimental: as §1, §2

[3] = test system: M. furfur (ATCC 14521); assay: as above; details: for MIC: Malassezia furfur, read-out: minimum inhibition concentration (MIC)
Experimental: as §1, §2

[4] = test system: M. globose (ATCC MYA-4889); assay: as above; details: for MIC: read-out: minimum inhibition concentration (MIC)
Experimental: as §1, §2

[5] = test system: M. furfur (ATCC 44344); assay: as above; details: for MIC: Malassezia furfur, read-out: minimum inhibition concentration (MIC)
Experimental: as §1, §2

[6] = test system: C. albicans (ATCC 90028); assay: as above; details: Candida albicans, read-out: minimum inhibition concentration (MIC)
Experimental: as §1, §2

[7] = test system: M. furfur (ATCC 12078); assay: as above; details: for MIC: Malassezia furfur, read-out: minimum inhibition concentration (MIC)
Experimental: as §1, §2

[8] = test system: C. parapsilosis (ATCC 22019); assay: as above; details: Lodderomyces parapsilosis, C. parapsilosis (22019), read-out: minimum inhibition concentration (MIC)
Experimental: as §1, §2

[9] = test system: Malassezia species and Candida species; assay: in vitro micro-dilution susceptibility assay, summary over all isolates; details: negative control
Experimental: as §1, with “seven. […]” for “seven.”

MIC ([1]; ATCC6258, 12 h, Time 0.5 days): > 1020 µg/mL | MIC ([1]; ATCC6258, 24 h, Time 1 days): > 1020 µg/mL | MIC ([1]; ATCC6258, 48 h, Time 2 days): > 1020 µg/mL | MIC ([1]; ATCC6258, 72 h, Time 3 days): > 1020 µg/mL | MIC ([1]; ATCC6258, 96 h, Time 4 days): > 1020 µg/mL | MIC ([1]; ATCC6258, 120 h, Time 5 days): > 1020 µg/mL | MIC ([1]; ATCC6258, 144 h, Time 6 days): > 1020 µg/mL | MIC ([1]; ATCC6258, 168 h, Time 7 days): > 1020 µg/mL | MIC ([2]; 120 h, Time 5 days): > 1020 µg/mL | MIC ([2]; 144 h, Time 6 days): > 1020 µg/mL | MIC ([2]; 168 h, Time 7 days): > 1020 µg/mL | minimum inhibition concentration (MIC) ([2]; Time 0.5 days): NGO | minimum inhibition concentration (MIC) ([2]; Time 1 days): NGO | minimum inhibition concentration (MIC) ([2]; Time 2 days): NGO | minimum inhibition concentration (MIC) ([2]; Time 3 days): NGO | minimum inhibition concentration (MIC) ([2]; Time 4 days): NGO | MIC ([3]; ATCC14521, 48 h, Time 2 days): > 1020 µg/mL | MIC ([3]; ATCC14521, 72 h, Time 3 days): > 1020 µg/mL | MIC ([3]; ATCC14521, 96 h, Time 4 days): > 1020 µg/mL | MIC ([3]; ATCC14521, 120 h, Time 5 days): > 1020 µg/mL | MIC ([3]; ATCC14521, 144 h, Time 6 days): > 1020 µg/mL | MIC ([3]; ATCC14521, 168 h, Time 7 days): > 1020 µg/mL | minimum inhibition concentration (MIC) ([3]; Time 0.5 days): NGO | minimum inhibition concentration (MIC) ([3]; Time 1 days): NGO | MIC ([4]; 120 h, Time 5 days): > 1020 µg/mL | MIC ([4]; 144 h, Time 6 days): > 1020 µg/mL | MIC ([4]; 168 h, Time 7 days): > 1020 µg/mL | minimum inhibition concentration (MIC) ([4]; Time 0.5 days): NGO | minimum inhibition concentration (MIC) ([4]; Time 1 days): NGO | minimum inhibition concentration (MIC) ([4]; Time 2 days): NGO | minimum inhibition concentration (MIC) ([4]; Time 3 days): NGO | minimum inhibition concentration (MIC) ([4]; Time 4 days): NGO | MIC ([5]; ATCC44344, 48 h, Time 2 days): > 1020 µg/mL | MIC ([5]; ATCC44344, 72 h, Time 3 days): > 1020 µg/mL | MIC ([5]; ATCC44344, 96 h, Time 4 days): > 1020 µg/mL | MIC ([5]; ATCC44344, 120 h, Time 5 days): > 1020 µg/mL | MIC ([5]; ATCC44344, 144 h, Time 6 days): > 1020 µg/mL | MIC ([5]; ATCC44344, 168 h, Time 7 days): > 1020 µg/mL | minimum inhibition concentration (MIC) ([5]; Time 0.5 days): NGO | minimum inhibition concentration (MIC) ([5]; Time 1 days): NGO | MIC ([6]; ATCC90028, 12 h, Time 0.5 days): > 1020 µg/mL | MIC ([6]; ATCC90028, 24 h, Time 1 days): > 1020 µg/mL | MIC ([6]; ATCC90028, 48 h, Time 2 days): > 1020 µg/mL | MIC ([6]; ATCC90028, 72 h, Time 3 days): > 1020 µg/mL | MIC ([6]; ATCC90028, 96 h, Time 4 days): > 1020 µg/mL | MIC ([6]; ATCC90028, 120 h, Time 5 days): > 1020 µg/mL | MIC ([6]; ATCC90028, 144 h, Time 6 days): > 1020 µg/mL | MIC ([6]; ATCC90028, 168 h, Time 7 days): > 1020 µg/mL | MIC ([7]; ATCC12078, 48 h, Time 2 days): > 1020 µg/mL | MIC ([7]; ATCC12078, 72 h, Time 3 days): > 1020 µg/mL | MIC ([7]; ATCC12078, 96 h, Time 4 days): > 1020 µg/mL | MIC ([7]; ATCC12078, 120 h, Time 5 days): > 1020 µg/mL | MIC ([7]; ATCC12078, 144 h, Time 6 days): > 1020 µg/mL | MIC ([7]; ATCC12078, 168 h, Time 7 days): > 1020 µg/mL | minimum inhibition concentration (MIC) ([7]; Time 0.5 days): NGO | minimum inhibition concentration (MIC) ([7]; Time 1 days): NGO | MIC ([8]; ATCC22019, 12 h, Time 0.5 days): > 1020 µg/mL | MIC ([8]; ATCC22019, 24 h, Time 1 days): > 1020 µg/mL | MIC ([8]; ATCC22019, 48 h, Time 2 days): > 1020 µg/mL | MIC ([8]; ATCC22019, 72 h, Time 3 days): > 1020 µg/mL | MIC ([8]; ATCC22019, 96 h, Time 4 days): > 1020 µg/mL | MIC ([8]; ATCC22019, 120 h, Time 5 days): > 1020 µg/mL | MIC ([8]; ATCC22019, 144 h, Time 6 days): > 1020 µg/mL | MIC ([8]; ATCC22019, 168 h, Time 7 days): > 1020 µg/mL
Compound: C[C@]12CCC(=O)C=C1CC[C@@H]1[C@@H]2[C@@H](O)C[C@@]2(C)[C@H]1CC[C@]2(O)C(=O)CO [Hydrocortisone]
anti-fungal activity (all isolates) [9]: no anti-fungal activity

From patent publication US11707454B2, “Topical roflumilast formulation having antifungal properties” (ARCUTIS BIOTHERAPEUTICS, INC., priority 2020, dated 2023)
